Structures are written as SMILES.

Data on three molecules can be found in patent US9878978B2, “Processes for the diazotization of 2,5-dichloroanilines” (priority 2013, dated 2018).

Series [1] is described as follows: Solubility study of 2,5-dichloroaniline in different solvents. The series is classed as physicochemical. As to the method: Three different commercially available sources of 2,5-dichloroaniline (Sigma, Acros, and AlfaAesar) were evaluated for solubility in several different solvents under the specific conditions reported in Table 5-A. The 2,5-dichloroaniline obtained from Sigma was evaluated with and without milling.
In contrast, it was insoluble in concentrated hydrochloric acid, 75% sulfuric acid (weight/weight sulfuric acid/water), and formic acid at all temperatures tested. Although 2,5-dichloroaniline was soluble in concentrated sulfuric acid at 80° C., solubility at the lower temperatures tested still was limited. Milling the 2,5-dichloroaniline did appear to improve solubility in concentrated sulfuric acid.
When sulfuric acid was added to the milled or unmilled 2,5-dichloroaniline, the 2,5-dichloroaniline clumped up and formed a “crust” on itself. It is hypothesized that this crust is a 2,5-dichloroaniline sulfate salt that forms and creates a salt capsule enclosing the 2,5-dichloroaniline thereby further reducing 2,5-dichloroaniline solubility. With vigorous stirring by stir bar or paddle-equipped stir rod, the mixture containing the “crusted” 2,5-dichloroaniline typically can be converted to a slurry of the 2,5-dichloroaniline sulfate salt.

Series [2] is described as follows: 2,5-Dichlorophenol stability at 120° C. with or without sodium nitrite and sulfamic acid. The series is classed as physicochemical. Conditions: 120° C. in the various solvents, without sodium nitrite. As to the method:
In this study, 2,5-dichlorophenol was stirred at 120° C. in the presence or absence of sodium nitrite and/or sulfamic acid. The 2,5-dichlorophenol itself was stable and either dissolved or melted in the various solvents at 120° C. Upon addition of sodium nitrite to the solution and heating at 120° C. for 30 minutes, all of the solutions had some byproduct formation. The experiments were repeated with sulfamic acid added at 1.1 times the sodium nitrite equivalents with heating to 120° C. for 30 minutes as before. Byproduct formation was reduced, and only the solutions containing sulfuric acid had byproducts.

For series [3] the following is noted: acetic acid/sulfuric acid reaction mixture stored at room temperature for two weeks.

Regarding `Nc1cc(Cl)ccc1Cl` [2,5-dichloroaniline], the Solubility entry is recorded as “insoluble” in series [1] (75% sulfuric acid (weight/weight sulfuric acid/water), all temperatures tested); “Partial” in series [1] (Acros, not milled, Conc. H2SO4, molarity 1.12, 10° C.); “Soluble” in series [1] (Acros, not milled, Conc. H2SO4, molarity 1.12, 25° C.); “Soluble” in series [1] (Acros, not milled, Conc. H2SO4, molarity 1.12, 80° C.); “Partial” in series [1] (Acros, not milled, Conc. H2SO4, molarity 2.24, 10° C.); “Partial” in series [1] (Acros, not milled, Conc. H2SO4, molarity 2.24, 25° C.). Further, the Solubility result is on record as “Soluble” in series [1] (Acros, not milled, Conc. H2SO4, molarity 2.24, 80° C.); “Soluble” in series [1] (Acros, not milled, Glacial Acetic Acid, molarity 1.12, 10° C.); “Soluble” in series [1] (Acros, not milled, Glacial Acetic Acid, molarity 1.12, 25° C.); “Soluble” in series [1] (Acros, not milled, Glacial Acetic Acid, molarity 1.12, 80° C.); “Soluble” in series [1] (Acros, not milled, Glacial Acetic Acid, molarity 2.24, 10° C.); “Soluble” in series [1] (Acros, not milled, Glacial Acetic Acid, molarity 2.24, 25° C.). Besides, the Solubility result is recorded as “Soluble” in series [1] (Acros, not milled, Glacial Acetic Acid, molarity 2.24, 80° C.); “Partial” in series [1] (AlfaAesar, not milled, Conc. H2SO4, molarity 1.12, 10° C.); “Partial” in series [1] (AlfaAesar, not milled, Conc. H2SO4, molarity 1.12, 25° C.); “Soluble” in series [1] (AlfaAesar, not milled, Conc. H2SO4, molarity 1.12, 80° C.); “Soluble” in series [1] (AlfaAesar, not milled, Glacial Acetic Acid, molarity 2.24, 10° C.); “Soluble” in series [1] (AlfaAesar, not milled, Glacial Acetic Acid, molarity 2.24, 25° C.). Besides, the Solubility entry was “Soluble” in series [1] (AlfaAesar, not milled, Glacial Acetic Acid, molarity 2.24, 80° C.); “Soluble” in series [1] (Sigma, milled, Conc. H2SO4, molarity 0.58, 10° C.); “Soluble” in series [1] (Sigma, milled, Conc. H2SO4, molarity 0.58, 25° C.); “Soluble” in series [1] (Sigma, milled, Conc. H2SO4, molarity 1.16, 10° C.); “Soluble” in series [1] (Sigma, milled, Conc. H2SO4, molarity 1.16, 25° C.); “Soluble” in series [1] (Sigma, milled, Conc. H2SO4, molarity 2.13, 10° C.). In addition, the Solubility entry in series [1] (Sigma, milled, Conc. H2SO4, molarity 2.13, 25° C.) is given as “Soluble”; in series [1] (Sigma, milled, Glacial Acetic Acid, molarity 1.16, 10° C.), “Soluble”; in series [1] (Sigma, milled, Glacial Acetic Acid, molarity 1.16, 25° C.) it was “Soluble”; in series [1] (Sigma, milled, Glacial Acetic Acid, molarity 2.24, 10° C.), “Soluble”; in series [1] (Sigma, milled, Glacial Acetic Acid, molarity 2.24, 25° C.), “Soluble”; in series [1] (Sigma, not milled, 75% H2SO4, molarity 2.24, 10° C.), “Insoluble”. For the same molecule, the Solubility result was “Insoluble” in series [1] (Sigma, not milled, 75% H2SO4, molarity 2.24, 25° C.); “Insoluble” in series [1] (Sigma, not milled, 75% H2SO4, molarity 2.24, 80° C.); “Insoluble” in series [1] (Sigma, not milled, Conc. H2SO4, molarity 2.24, 10° C.); “Insoluble” in series [1] (Sigma, not milled, Conc. H2SO4, molarity 2.24, 25° C.); “Soluble” in series [1] (Sigma, not milled, Conc. H2SO4, molarity 2.24, 80° C.); “Insoluble” in series [1] (Sigma, not milled, Conc. HCl, molarity 2.24, 10° C.). Further, the Solubility result in series [1] (Sigma, not milled, Conc. HCl, molarity 2.24, 25° C.) is “Insoluble”; in series [1] (Sigma, not milled, Conc. HCl, molarity 2.24, 80° C.), “Insoluble”; in series [1] (Sigma, not milled, Formic Acid (88%), molarity 2.24, 10° C.), “Insoluble”; in series [1] (Sigma, not milled, Formic Acid (88%), molarity 2.24, 25° C.) it was “Insoluble”; in series [1] (Sigma, not milled, Formic Acid (88%), molarity 2.24, 80° C.) it was “Insoluble”; in series [1] (Sigma, not milled, Glacial Acetic Acid, molarity 2.24, 25° C.), “Soluble”. Besides, the Solubility entry is given as “Soluble” in series [1] (Sigma, not milled, Glacial Acetic Acid, molarity 2.24, 80° C.); “Soluble” in series [1] (Sigma, not milled, Trifluoracetic Acid, molarity 2.24, 10° C.); “Soluble” in series [1] (Sigma, not milled, Trifluoracetic Acid, molarity 2.24, 25° C.); “Soluble” in series [1] (Sigma, not milled, Trifluoracetic Acid, molarity 2.24, 80° C.); “readily soluble” in series [1] (acetic acid, all temperatures); “insoluble” in series [1] (concentrated hydrochloric acid, all temperatures tested). The Solubility entry in series [1] (concentrated sulfuric acid, 80° C.) is listed as “soluble”; in series [1] (concentrated sulfuric acid, lower temperatures tested), “limited”; in series [1] (formic acid, all temperatures tested), “insoluble”; in series [1] (trifluoroacetic acid, all temperatures), “readily soluble”.

`Oc1cc(Cl)ccc1Cl` [2,5-dichlorophenol]: the Stability result in series [2] was “stable”.

As to `N#[N+]c1cc(Cl)ccc1Cl` [2,5-Dichlorobenzene diazonium, 2,5-dichlorobenzenediazonium], the Degradation on storage entry in series [3] is recorded as “no degradation”.
